According to US8633242B2, “Benzylidene indanones and processes for preparation and use thereof” (Council of Scientific and Industrial Research, priority 2011, dated 2014):

How the values were obtained:
A549 (Lung) = assay: Sulphorhodamine B cytotoxicity assay, A549; assay type: cell-based, human; design: key to Human cancer cell lines IC50, A549 (Lung): Inactive: inactive, if IC50 > 100 μM; conditions: SRB assay, 48 hours incubation; for IC50: Homo sapiens, A549, read-out: Human cancer cell lines IC50, A549 (Lung)
Protocol: (§1) The benzylidene analogues were evaluated by Sulphorhodamine B Assay as per reported method [Skehan et al., J. Natl. Cancer Inst. 1990, 82, 1107]. The human cancer cell lines procured from National Cancer institute, Frederick, U.S.A. were used in present study. Cells were grown in tissue culture flasks in complete growth medium (RPMI-1640 medium with 2 mM glutamine, pH 7.4 supplemented with 10% fetal bovine serum, 100 μg/ml streptomycin and 100 units/ml penicillin) in a carbon dioxide incubator (37° C., 5% CO2, 90% RH). The cells at subconfluent stage were harvested from the flask by treatment with trypsin (0.05% in PBS (pH 7.4) containing 0.02% EDTA). Cells with viability of more than 98%, as determined by trypan blue exclusion, were used for determination of cytotoxicity. The cell suspension required concentration of cells was prepared in complete growth medium. Stock solution of 2×10^−2 M of compounds were prepared in DMSO and further dilution was carried out complete growth medium containing 50 μg/ml of gentamycin to obtained working test solution of required concentration. In vitro cytotoxicity against various human cancer cell lines was determined using 96-well cell culture plates. The 100 μl of cell suspension was added to each well of the 96-well cell culture plates. The cells were allowed to grow in CO2 incubator (37° C., 5% CO2, 90% RH) for 24 hours. The test materials in complete growth medium (100 μl) were added after 24 hours incubation to the wells containing cell suspension. The plates were further incubated for 48 hours (37° C. in an atmosphere of 5% CO2 and 90% relative humidity) in a carbon dioxide incubator after addition of test material and then the cell growth was stopped by gently layering trichloroacetic acid (50% TCA, 50 μl) on top of the medium in all the wells. The plates were incubated at 4° C. for one hour to fix the cells attached to the bottom of the wells. The liquid of all the wells was gently pipetted out and discarded. The plates were washed five times with distilled water to remove TCA, growth medium low molecular weight metabolites, serum proteins etc. and air-dried. Cell growth was measured by staining with sulforhodamine B dye. The adsorbed dye was dissolved in Tris-HCl Buffer (100 μl/well, 0.01M, pH 10.4) and plates were gently stirred for 10 minutes on a mechanical stirrer. The optical density (OD) was recorded on ELISA reader at 540 nm. 5-Fluorouracil, Paclitaxel (Taxol), Mitomycin-c and Adriamycin were used as positive controls.

PC-3 (prostate) = assay: Sulphorhodamine B cytotoxicity assay, PC-3; assay type: cell-based, human; design: key to Human cancer cell lines IC50, PC-3 (prostate): Inactive: inactive, if IC50 > 100 μM; conditions: SRB assay, 48 hours incubation; for IC50: Homo sapiens, read-out: Human cancer cell lines IC50, PC-3 (prostate)
Protocol: as §1

HCT (Colon) = assay: Sulphorhodamine B cytotoxicity assay, HCT; assay type: cell-based, human; design: key to Human cancer cell lines IC50, HCT (Colon): Inactive: inactive, if IC50 > 100 μM; conditions: SRB assay, 48 hours incubation; for IC50: Homo sapiens, read-out: Human cancer cell lines IC50, HCT (Colon)
Protocol: as §1

THP-1 (Leukemia) = assay: Sulphorhodamine B cytotoxicity assay, THP-1; assay type: cell-based, human; design: key to Human cancer cell lines IC50, THP-1 (Leukemia): Inactive: inactive, if IC50 > 100 μM; conditions: for Human cancer cell lines IC50, THP-1 (Leukemia) / IC50: SRB assay, 48 hours incubation; for IC50: Homo sapiens, THP-1, read-out: Human cancer cell lines IC50, THP-1 (Leukemia)
Protocol: as §1

HeLa (Cervix) = assay: Sulphorhodamine B cytotoxicity assay, HeLa; assay type: cell-based, human; design: key to Human cancer cell lines IC50, HeLa (Cervix): Inactive: inactive, if IC50 > 100 μM; conditions: SRB assay, 48 hours incubation
Protocol: as §1

MCF-7 (Breast cancer) = assay: Sulphorhodamine B cytotoxicity assay, MCF-7; assay type: cell-based, human; design: key to Human cancer cell lines IC50, MCF-7 (Breast cancer): Inactive: inactive, if IC50 > 100 μM; conditions: for IC50: Homo sapiens, MCF7, read-out: Human cancer cell lines IC50, MCF-7 (Breast cancer)
Protocol: as §1

DU-145 (prostate) = assay: Sulphorhodamine B cytotoxicity assay, DU-145; assay type: cell-based, human; design: key to Human cancer cell lines IC50, DU-145 (prostate): Inactive: inactive, if IC50 > 100 μM; conditions: SRB assay, 48 hours incubation; for IC50: Homo sapiens, DU-145, read-out: Human cancer cell lines IC50, DU-145 (prostate)
Protocol: as §1

tubulin protein = assay: In-vitro tubulin polymerisation inhibition assay; assay type: biochemical; design: key to Tubulin polymerisation inhibition IC50: Inactive: inactive, if IC50 > 10 μM; conditions: for Tubulin polymerisation inhibition IC50 / IC50: tubulin 3 mg/mL, 37° C., 340 nm, 1 h; for IC50: read-out: Tubulin polymerisation inhibition IC50
Protocol: The tubulin polymerization experiment was performed using ‘assay kit’ (Cytoskeleton USA) following manufacturer's protocol based on the procedure described by of Shelanski et al. (1973) and Lee et al. (1977). Briefly, tubulin protein (3 mg/mL) in tubulin polymerization buffer (80 mM PIPES, pH 6.9, 2 mM MgCl2, 0.5 mM EGTA, 1 mM GTP and 15% glycerol) was placed in pre-warmed 96-well microtiter plates at 37° C. in the presence of test compounds with variable concentrations. All samples were mixed well and polymerization was monitored kinetically at 340 nm every min for 1 h using a Spectramax plate reader. Podophyllotoxin and etoposide were used as positive controls and DMSO as negative control. The IC50 value was determined from dose-dependent analysis and is defined as the concentration that inhibits the rate of polymerization by 50%.
Podophyllotoxin and etoposide, standard tubulin polymerisation inhibitors were used as positive controls.

SMILES | Tubulin polymerisation inhibition IC50 (tubulin protein) | melting point [°C] | IC50 (tubulin protein) [µM] | IC50 (A549 (Lung)) [µM] | IC50 (PC-3 (prostate)) [µM] | IC50 (HCT (Colon)) [µM] | Human cancer cell lines IC50, THP-1 (Leukemia) (THP-1 (Leukemia)) | Human cancer cell lines IC50, HeLa (Cervix) (HeLa (Cervix)) | anticancer activity against human breast cancer cells (MCF-7), in words (MCF-7 (Breast cancer)) | IC50 (MCF-7 (Breast cancer); SRB assay, 48 hours incubation) [µM] | Human cancer cell lines IC50, DU-145 (prostate) (DU-145 (prostate)) | Human cancer cell lines IC50, HCT (Colon) (HCT (Colon)) | IC50 (THP-1 (Leukemia)) [µM] | inhibition of tubulin polymerisation, in words (tubulin protein) | Human cancer cell lines IC50, PC-3 (prostate) (PC-3 (prostate)) | activity against leukemia cell lines (THP), in words (THP-1 (Leukemia)) | IC50 (HeLa (Cervix); Homo sapiens, HeLa, read-out: Human cancer cell lines IC50, HeLa (Cervix)) [µM] | IC50 (DU-145 (prostate)) [µM] | Human cancer cell lines IC50, A549 (Lung) (A549 (Lung)) | Human cancer cell lines IC50, MCF-7 (Breast cancer) (MCF-7 (Breast cancer); SRB assay, 48 hours incubation)
COc1cc(C2/C(=C/c3ccc(OC)c(OC)c3OC)C(=O)c3cc(OC)c(OC)c(OC)c32)cc(OC)c1OC (stereo not drawn) [Compound 15, 2-(2″,3″,4″-trimethoxybenzylidene), 3-(3′,4′,5′-trimethoxyphenyl)-4,5,6-trimethoxy, indan-1-one] | Inactive | 163 to 165 | – | 93 | 85 | 79.6 | Inactive | Inactive | potent anticancer activity | 8.88 | Inactive | – | – | – | – | – | – | – | – | –
COc1cc(OC)c(OC)cc1/C=C1\C(=O)c2cc(OC)c(OC)c(OC)c2C1c1cc(OC)c(OC)c(OC)c1 (stereo not drawn) [Compound 16, 2-(2″,4″,5″-trimethoxybenzylidene), 3-(3′,4′,5′-trimethoxyphenyl)-4,5,6-trimethoxy indan-1-one] | – | 203 to 205 | 4.21 | 87.2 | 64.9 | – | – | Inactive | – | 56.5 | Inactive | Inactive | 81.5 | strong inhibition | – | – | – | – | – | –
COc1cc(C2/C(=C/c3cccc4c3OCO4)C(=O)c3cc(OC)c(OC)c(OC)c32)cc(OC)c1OC (stereo not drawn) [Compound 17, 2-(2″,3″-methylenedioxybenzlidene), 3-(3′,4′,5′-trimethoxyphenyl)-4,5,6-trimethoxy indan-1-one] | Inactive | 180 to 182 | – | 82.2 | – | 45.9 | Inactive | Inactive | – | 57.2 | Inactive | – | – | – | Inactive | – | – | – | – | –
COc1cc(C2/C(=C/c3ccc(F)cc3)C(=O)c3cc(OC)c(OC)c(OC)c32)cc(OC)c1OC (stereo not drawn) [Compound 18, 2-(4″-fluorobenzylidene), 3-(3′,4′,5′-trimethoxyphenyl)-4,5,6-trimethoxy indan-1-one] | – | 156 to 158 | 0.73 | 26.9 | 38.6 | – | – | – | potent anticancer activity | 0.68 | – | Inactive | 2.88 | strong inhibition | – | potent activity | 66.5 | 54.1 | – | –

Now from value to compound, other results behind:

Tubulin polymerisation inhibition IC50 (tubulin protein) | melting point [°C] | IC50 (tubulin protein) [µM] | SMILES | IC50 (A549 (Lung)) [µM] | IC50 (PC-3 (prostate)) [µM] | IC50 (HCT (Colon)) [µM] | Human cancer cell lines IC50, THP-1 (Leukemia) (THP-1 (Leukemia)) | Human cancer cell lines IC50, HeLa (Cervix) (HeLa (Cervix)) | anticancer activity against human breast cancer cells (MCF-7), in words (MCF-7 (Breast cancer)) | IC50 (MCF-7 (Breast cancer); SRB assay, 48 hours incubation) [µM] | Human cancer cell lines IC50, DU-145 (prostate) (DU-145 (prostate)) | Human cancer cell lines IC50, HCT (Colon) (HCT (Colon)) | IC50 (THP-1 (Leukemia)) [µM] | inhibition of tubulin polymerisation, in words (tubulin protein) | Human cancer cell lines IC50, PC-3 (prostate) (PC-3 (prostate)) | activity against leukemia cell lines (THP), in words (THP-1 (Leukemia)) | IC50 (HeLa (Cervix); Homo sapiens, HeLa, read-out: Human cancer cell lines IC50, HeLa (Cervix)) [µM] | IC50 (DU-145 (prostate)) [µM] | Human cancer cell lines IC50, A549 (Lung) (A549 (Lung)) | Human cancer cell lines IC50, MCF-7 (Breast cancer) (MCF-7 (Breast cancer); SRB assay, 48 hours incubation)
– | 188 to 190 | 0.6 | COc1cc(C2/C(=C/c3ccc(C(F)(F)F)cc3)C(=O)c3cc(OC)c(OC)c(OC)c32)cc(OC)c1OC (stereo not drawn) [Compound 20, 2-(4″-trifluoromethylbenzylidene), 3-(3′,4′,5′-trimethoxyphenyl)-4,5,6-trimethoxy indan-1-one] | 61.5 | 27.9 | 92 | – | Inactive | – | 68.9 | Inactive | – | 8.67 | strong inhibition | – | potent activity | – | – | – | –
– | 191 to 192 | 3.04 | COc1ccc(/C=C2\C(=O)c3cc(OC)c(OC)c(OC)c3C2c2cc(OC)c(OC)c(OC)c2)c(OC)c1 (stereo not drawn) [Compound 21, 2-(2″,4″-dimethoxybenzylidene), 3-(3′,4′,5′-trimethoxyphenyl)-4,5,6-trimethoxy indan-1-one] | 71.6 | 71.7 | 11.1 | Inactive | Inactive | potent anticancer activity | 1 | – | – | – | strong inhibition | – | – | – | 2.04 | – | –
Inactive | 188 to 190 | – | COc1cc(C2/C(=C/c3ccc(OCc4ccccc4)cc3)C(=O)c3cc(OC)c(OC)c(OC)c32)cc(OC)c1OC (stereo not drawn) [Compound 22, 2-(4″-benzyloxybenzylidene), 3-(3′,4′,5′-trimethoxyphenyl)-4,5,6-trimethoxy indan-1-one] | – | 78.9 | – | Inactive | Inactive | – | – | – | Inactive | – | – | – | – | – | 78.9 | Inactive | Inactive
